Data reported in paper PMC3968014, “Design and Synthesis of a Library of Lead-Like 2,4-Bisheterocyclic Substituted Thiophenes as Selective Dyrk/Clk Inhibitors” (PLoS ONE, 2014).
Values joined by “and” are separate entries in the source; they are usually repeats but may differ in a detail not shown here. Equal values may be shown once.

Experiments:
[1] = molecular target: T1, CK2α (Homo sapiens, UniProt P68400); assay: CK2α kinase assay (counter screen); assay type: biochemical; conditions: for inhibition at 5 µM: read-out: percentage of inhibition CK2α
T1 construct: purchased Life Technologies (Invitrogen SelectScreen); Dyrk1A, Dyrk2 and CK2α in-house or gifts
Protocol: Dyrk1A, Dyrk1B, Dyrk2, CK2α and Clk1 kinase reactions were performed in a reaction buffer containing 50 mM Tris/HCl, pH 7.4, 0.1 mM EGTA, 0.5 mM DTT, 10 mM MgCl2, 100 µM ATP and 0.33 µM [γ-^32ATP] as well as the appropriate substrate peptides, which were 100 µM Woodtide for the Dyrk isoforms ([…]-NH2), 60 µM CK2 substrate peptide ([…]-NH2, from Millipore) for CK2α or RS repeat peptide ([…]) for Clk1. The CK2α protein was a kind gift of M. Montenarh (Homburg). The kinase reactions were performed at 30°C for 15 min and terminated by spotting 5 µL of the reaction mixture onto a P81 phosphocellulose membrane (Whatman). The membrane was washed four times with 0.3% phosphoric acid and one time with acetone and dried. The dry membrane was exposed in a cassette to a Phosphor Screen Imaging Plate (FujiFilm) and the signals detected by scanning of the imaging plate in a Fuji FLA-3000 PhosphoImager. The spots were quantified using AIDA software (Raytest, Version 3.52) to determine the activities of the kinases in the assay reactions. […] IC50 values were calculated by fitting the data with Origin Pro 8.6 (OriginLabs). The calculated IC50 values are representative of at least two independent determinations.

[2] = test system: U2OS osteosarcoma cells; assay: Caspase-3 Assay (Caspase-Glo 3/7); assay type: cell-based; conditions: for caspase-3/7 activity: starved U2OS cells, 48 hours, vs DMSO control
Protocol: U2OS osteosarcoma cells were seeded in a 96 well flat bottom plate (15*10^3 cells/well). […] The induction of caspase-3/7 activity was measured using the Promega Caspase-Glo 3/7 assay system (Promega, LOT 0000054568). The resulting luciferase reaction signals that are proportional to the caspase induction were measured in a POLARstar plate reader (BMG Labtech, Offenburg, Germany). […] Values obtained for different compound concentrations were compared using the two-sided Student's t test; levels of significance thus obtained are indicated by asterisks.

[3] = molecular target: T2, DYRK3 (Homo sapiens, UniProt O43781); assay: Selectivity panel DYRK3; assay type: biochemical; conditions: 5 µM inhibitor
T2 construct: purchased Life Technologies (Invitrogen SelectScreen); Dyrk1A, Dyrk2 and CK2α in-house or gifts

[4] = molecular target: T3, CLK2 (Homo sapiens, UniProt P49760); assay: Selectivity panel CLK2; assay type: biochemical; conditions: 5 µM inhibitor
T3 construct: purchased Life Technologies (Invitrogen SelectScreen); Dyrk1A, Dyrk2 and CK2α in-house or gifts

[5] = molecular target: T4, HIPK4 (Homo sapiens, UniProt Q8NE63); assay: Selectivity panel HIPK4; assay type: biochemical; conditions: 5 µM inhibitor
T4 construct: purchased Life Technologies (Invitrogen SelectScreen); Dyrk1A, Dyrk2 and CK2α in-house or gifts

[6] = molecular target: T5, MAPK12 (p38 gamma, ERK3) (Homo sapiens, UniProt P53778); assay: Selectivity panel MAPK12; assay type: biochemical; conditions: 5 µM inhibitor
T5 construct: purchased Life Technologies (Invitrogen SelectScreen); Dyrk1A, Dyrk2 and CK2α in-house or gifts

[7] = molecular target: T6, STK23 (MSSK1) (Homo sapiens, UniProt Q9UPE1); assay: Selectivity panel STK23; assay type: biochemical; conditions: 5 µM inhibitor
T6 construct: purchased Life Technologies (Invitrogen SelectScreen); Dyrk1A, Dyrk2 and CK2α in-house or gifts

[8] = molecular target: T7, SRPK1 (Homo sapiens, UniProt Q96SB4); assay: Selectivity panel SRPK1; assay type: biochemical; conditions: 5 µM inhibitor
T7 construct: purchased Life Technologies (Invitrogen SelectScreen); Dyrk1A, Dyrk2 and CK2α in-house or gifts

[9] = molecular target: T8, MAP3K5 (ASK1) (Homo sapiens, UniProt Q99683); assay: Selectivity panel MAP3K5; assay type: biochemical; conditions: 5 µM inhibitor
T8 construct: purchased Life Technologies (Invitrogen SelectScreen); Dyrk1A, Dyrk2 and CK2α in-house or gifts

[10] = molecular target: T9, PKCβ (Homo sapiens, UniProt P05771); assay: Selectivity panel PKCβ; assay type: biochemical; conditions: 5 µM inhibitor
T9 construct: purchased Life Technologies (Invitrogen SelectScreen); Dyrk1A, Dyrk2 and CK2α in-house or gifts

[11] = molecular target: T10, PRKD2 (PKD2) (Homo sapiens, UniProt Q9BZL6); assay: Selectivity panel PRKD2; assay type: biochemical; conditions: 5 µM inhibitor
T10 construct: purchased Life Technologies (Invitrogen SelectScreen); Dyrk1A, Dyrk2 and CK2α in-house or gifts
T10 sequence (Q9BZL6 1-878): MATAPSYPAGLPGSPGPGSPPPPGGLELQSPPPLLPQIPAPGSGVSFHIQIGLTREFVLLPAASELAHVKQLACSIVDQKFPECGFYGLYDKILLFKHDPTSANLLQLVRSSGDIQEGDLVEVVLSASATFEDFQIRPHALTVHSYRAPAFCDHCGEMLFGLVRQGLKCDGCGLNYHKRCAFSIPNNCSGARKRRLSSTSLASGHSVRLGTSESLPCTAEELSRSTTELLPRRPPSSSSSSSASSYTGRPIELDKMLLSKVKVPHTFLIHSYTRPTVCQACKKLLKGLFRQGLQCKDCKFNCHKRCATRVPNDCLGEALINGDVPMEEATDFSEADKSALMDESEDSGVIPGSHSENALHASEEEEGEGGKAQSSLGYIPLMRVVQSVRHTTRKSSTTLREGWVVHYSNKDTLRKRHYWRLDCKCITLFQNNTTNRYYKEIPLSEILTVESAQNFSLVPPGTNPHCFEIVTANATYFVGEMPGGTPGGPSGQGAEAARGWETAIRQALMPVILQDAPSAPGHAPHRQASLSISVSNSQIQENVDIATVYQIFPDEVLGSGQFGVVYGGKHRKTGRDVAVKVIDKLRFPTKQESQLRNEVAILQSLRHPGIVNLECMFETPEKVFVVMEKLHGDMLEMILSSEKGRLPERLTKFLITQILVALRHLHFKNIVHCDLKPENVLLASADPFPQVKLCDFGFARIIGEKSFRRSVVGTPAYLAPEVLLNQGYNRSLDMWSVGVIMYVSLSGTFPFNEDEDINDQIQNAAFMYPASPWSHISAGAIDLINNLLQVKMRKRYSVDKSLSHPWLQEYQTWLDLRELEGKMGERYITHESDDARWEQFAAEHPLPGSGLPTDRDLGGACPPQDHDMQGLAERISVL

[12] = molecular target: T11, BRSK1 (SAD1) (Homo sapiens, UniProt Q8TDC3); assay: Selectivity panel BRSK1; assay type: biochemical; conditions: 5 µM inhibitor
T11 construct: purchased Life Technologies (Invitrogen SelectScreen); Dyrk1A, Dyrk2 and CK2α in-house or gifts

[13] = molecular target: T12, PASK (Homo sapiens, UniProt Q96RG2); assay: Selectivity panel PASK (CAMK); assay type: biochemical; conditions: 5 µM inhibitor; listed under CAMK
T12 construct: purchased Life Technologies (Invitrogen SelectScreen); Dyrk1A, Dyrk2 and CK2α in-house or gifts

[14] = molecular target: T13, MLK1 (Homo sapiens, UniProt P80192); assay: Selectivity panel MLK1; assay type: biochemical; conditions: 5 µM inhibitor
T13 construct: purchased Life Technologies (Invitrogen SelectScreen); Dyrk1A, Dyrk2 and CK2α in-house or gifts

[15] = molecular target: T14, LIMK1 (Homo sapiens, UniProt P53667); assay: Selectivity panel LIMK1; assay type: biochemical; conditions: 5 µM inhibitor
T14 construct: purchased Life Technologies (Invitrogen SelectScreen); Dyrk1A, Dyrk2 and CK2α in-house or gifts

[16] = molecular target: T15, IRAK4 (Homo sapiens, UniProt Q9NWZ3); assay: Selectivity panel IRAK4; assay type: biochemical; conditions: 5 µM inhibitor
T15 construct: purchased Life Technologies (Invitrogen SelectScreen); Dyrk1A, Dyrk2 and CK2α in-house or gifts

[17] = molecular target: T16, BTK (Homo sapiens, UniProt Q06187); assay: Selectivity panel BTK; assay type: biochemical; conditions: 5 µM inhibitor
T16 construct: purchased Life Technologies (Invitrogen SelectScreen); Dyrk1A, Dyrk2 and CK2α in-house or gifts

[18] = molecular target: T17, EPHB3 (Homo sapiens, UniProt P54753); assay: Selectivity panel EPHB3; assay type: biochemical; conditions: 5 µM inhibitor
T17 construct: purchased Life Technologies (Invitrogen SelectScreen); Dyrk1A, Dyrk2 and CK2α in-house or gifts

[19] = molecular target: T18, IGF1R (Homo sapiens, UniProt P08069); assay: Selectivity panel IGF1R; assay type: biochemical; conditions: 5 µM inhibitor
T18 construct: purchased Life Technologies (Invitrogen SelectScreen); Dyrk1A, Dyrk2 and CK2α in-house or gifts

[20] = molecular target: T19, Dyrk1B (Homo sapiens, UniProt Q9Y463); assay: Dyrk1B kinase assay (32P-ATP, Woodtide); assay type: biochemical; conditions: for IC50: 100 µM ATP; for inhibition at 5 µM: read-out: percentage of inhibition Dyrk1B; for Kd: calculated with Cheng-Prussoff equation, KM ATP 59 µM
T19 construct: purchased Life Technologies PV4649 (LOT # 877059G)
T19 sequence (Q9Y463 whole entry): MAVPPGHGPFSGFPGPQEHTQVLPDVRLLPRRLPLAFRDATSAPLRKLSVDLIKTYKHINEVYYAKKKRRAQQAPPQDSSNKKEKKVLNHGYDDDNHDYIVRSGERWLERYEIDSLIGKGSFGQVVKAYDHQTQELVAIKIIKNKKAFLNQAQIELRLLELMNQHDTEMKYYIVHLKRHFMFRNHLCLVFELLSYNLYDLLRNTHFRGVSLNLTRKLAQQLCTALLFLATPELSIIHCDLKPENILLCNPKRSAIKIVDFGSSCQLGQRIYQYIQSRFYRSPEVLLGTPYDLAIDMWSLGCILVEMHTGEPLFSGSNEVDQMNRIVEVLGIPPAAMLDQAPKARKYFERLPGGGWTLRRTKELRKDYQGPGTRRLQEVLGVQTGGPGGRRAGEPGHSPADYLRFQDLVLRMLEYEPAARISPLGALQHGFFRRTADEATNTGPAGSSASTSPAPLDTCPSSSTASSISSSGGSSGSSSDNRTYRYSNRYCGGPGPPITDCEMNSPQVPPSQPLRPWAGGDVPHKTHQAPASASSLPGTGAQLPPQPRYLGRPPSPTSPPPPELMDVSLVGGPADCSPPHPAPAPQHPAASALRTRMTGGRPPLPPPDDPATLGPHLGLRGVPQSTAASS

T1 sequence (P68400 whole entry): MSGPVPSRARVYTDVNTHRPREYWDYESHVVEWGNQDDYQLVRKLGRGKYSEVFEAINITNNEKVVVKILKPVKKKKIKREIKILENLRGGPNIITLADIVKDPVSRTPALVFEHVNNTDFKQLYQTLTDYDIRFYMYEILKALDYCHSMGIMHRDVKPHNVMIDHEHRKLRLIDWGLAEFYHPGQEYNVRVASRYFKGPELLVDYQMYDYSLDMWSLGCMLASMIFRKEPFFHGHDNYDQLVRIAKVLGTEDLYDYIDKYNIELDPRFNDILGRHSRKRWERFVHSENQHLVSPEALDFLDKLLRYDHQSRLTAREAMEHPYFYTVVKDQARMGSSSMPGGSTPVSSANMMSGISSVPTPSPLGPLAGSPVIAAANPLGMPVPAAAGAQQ
T13 sequence (P80192 whole entry): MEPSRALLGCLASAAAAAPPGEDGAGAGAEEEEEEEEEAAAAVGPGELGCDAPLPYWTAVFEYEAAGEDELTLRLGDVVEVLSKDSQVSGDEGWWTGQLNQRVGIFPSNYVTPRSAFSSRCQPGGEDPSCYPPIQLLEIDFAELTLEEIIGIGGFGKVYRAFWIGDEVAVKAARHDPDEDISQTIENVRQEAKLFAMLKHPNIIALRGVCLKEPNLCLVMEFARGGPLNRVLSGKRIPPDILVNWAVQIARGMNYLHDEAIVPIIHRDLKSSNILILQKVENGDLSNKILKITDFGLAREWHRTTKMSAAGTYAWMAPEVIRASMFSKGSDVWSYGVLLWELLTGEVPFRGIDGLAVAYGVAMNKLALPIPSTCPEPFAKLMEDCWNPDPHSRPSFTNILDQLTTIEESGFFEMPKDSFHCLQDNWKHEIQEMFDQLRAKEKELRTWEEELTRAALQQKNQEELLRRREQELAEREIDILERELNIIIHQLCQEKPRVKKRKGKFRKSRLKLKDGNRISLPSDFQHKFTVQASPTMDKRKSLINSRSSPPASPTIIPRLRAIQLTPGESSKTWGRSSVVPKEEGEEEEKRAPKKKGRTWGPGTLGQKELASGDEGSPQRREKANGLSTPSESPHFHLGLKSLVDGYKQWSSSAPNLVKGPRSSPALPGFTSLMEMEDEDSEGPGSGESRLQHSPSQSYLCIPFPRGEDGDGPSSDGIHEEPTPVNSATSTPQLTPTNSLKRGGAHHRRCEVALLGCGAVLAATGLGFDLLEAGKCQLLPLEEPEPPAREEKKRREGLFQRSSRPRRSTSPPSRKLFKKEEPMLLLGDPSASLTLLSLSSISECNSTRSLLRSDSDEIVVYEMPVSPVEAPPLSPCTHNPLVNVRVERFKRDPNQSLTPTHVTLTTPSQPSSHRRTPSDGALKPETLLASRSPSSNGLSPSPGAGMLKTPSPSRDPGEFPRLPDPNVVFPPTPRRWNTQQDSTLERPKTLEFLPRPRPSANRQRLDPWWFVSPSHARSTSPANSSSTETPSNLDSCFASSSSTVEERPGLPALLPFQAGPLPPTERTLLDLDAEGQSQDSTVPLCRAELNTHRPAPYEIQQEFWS
T9 sequence (P05771 whole entry): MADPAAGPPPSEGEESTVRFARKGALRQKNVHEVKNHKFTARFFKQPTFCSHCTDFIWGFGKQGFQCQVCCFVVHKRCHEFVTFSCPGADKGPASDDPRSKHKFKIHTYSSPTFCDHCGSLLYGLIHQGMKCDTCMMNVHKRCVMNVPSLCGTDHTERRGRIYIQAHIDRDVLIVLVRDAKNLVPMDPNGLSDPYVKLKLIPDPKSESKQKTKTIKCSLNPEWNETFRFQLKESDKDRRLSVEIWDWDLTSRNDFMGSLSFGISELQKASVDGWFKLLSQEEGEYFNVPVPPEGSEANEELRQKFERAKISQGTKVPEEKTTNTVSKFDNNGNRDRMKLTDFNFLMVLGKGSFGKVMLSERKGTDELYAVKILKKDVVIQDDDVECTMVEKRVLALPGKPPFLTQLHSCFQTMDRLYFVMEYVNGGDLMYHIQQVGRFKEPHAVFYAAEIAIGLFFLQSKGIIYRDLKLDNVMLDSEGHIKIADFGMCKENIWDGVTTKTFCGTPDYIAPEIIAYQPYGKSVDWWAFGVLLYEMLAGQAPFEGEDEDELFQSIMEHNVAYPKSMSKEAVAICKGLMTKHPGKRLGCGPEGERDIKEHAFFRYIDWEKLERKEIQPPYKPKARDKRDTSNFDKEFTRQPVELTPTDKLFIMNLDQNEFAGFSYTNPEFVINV
T16 sequence (Q06187 whole entry): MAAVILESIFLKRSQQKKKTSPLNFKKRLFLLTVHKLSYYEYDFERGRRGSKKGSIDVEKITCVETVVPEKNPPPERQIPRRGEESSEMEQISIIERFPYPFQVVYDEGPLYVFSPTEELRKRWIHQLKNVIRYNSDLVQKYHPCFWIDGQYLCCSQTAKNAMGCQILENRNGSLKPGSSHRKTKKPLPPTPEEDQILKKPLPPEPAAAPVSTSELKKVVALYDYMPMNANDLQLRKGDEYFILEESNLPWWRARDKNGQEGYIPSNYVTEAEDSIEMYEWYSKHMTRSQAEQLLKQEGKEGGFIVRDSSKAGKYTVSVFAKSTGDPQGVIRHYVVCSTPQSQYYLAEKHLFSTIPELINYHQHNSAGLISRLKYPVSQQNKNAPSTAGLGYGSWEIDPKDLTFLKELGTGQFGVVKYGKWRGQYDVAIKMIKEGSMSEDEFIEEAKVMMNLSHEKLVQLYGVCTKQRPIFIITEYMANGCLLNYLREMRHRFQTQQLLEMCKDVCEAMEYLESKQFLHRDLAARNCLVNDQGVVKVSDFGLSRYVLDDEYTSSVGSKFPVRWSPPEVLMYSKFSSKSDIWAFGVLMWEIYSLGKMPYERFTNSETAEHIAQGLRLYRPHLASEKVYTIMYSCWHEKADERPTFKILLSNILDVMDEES
T17 sequence (P54753 34-998): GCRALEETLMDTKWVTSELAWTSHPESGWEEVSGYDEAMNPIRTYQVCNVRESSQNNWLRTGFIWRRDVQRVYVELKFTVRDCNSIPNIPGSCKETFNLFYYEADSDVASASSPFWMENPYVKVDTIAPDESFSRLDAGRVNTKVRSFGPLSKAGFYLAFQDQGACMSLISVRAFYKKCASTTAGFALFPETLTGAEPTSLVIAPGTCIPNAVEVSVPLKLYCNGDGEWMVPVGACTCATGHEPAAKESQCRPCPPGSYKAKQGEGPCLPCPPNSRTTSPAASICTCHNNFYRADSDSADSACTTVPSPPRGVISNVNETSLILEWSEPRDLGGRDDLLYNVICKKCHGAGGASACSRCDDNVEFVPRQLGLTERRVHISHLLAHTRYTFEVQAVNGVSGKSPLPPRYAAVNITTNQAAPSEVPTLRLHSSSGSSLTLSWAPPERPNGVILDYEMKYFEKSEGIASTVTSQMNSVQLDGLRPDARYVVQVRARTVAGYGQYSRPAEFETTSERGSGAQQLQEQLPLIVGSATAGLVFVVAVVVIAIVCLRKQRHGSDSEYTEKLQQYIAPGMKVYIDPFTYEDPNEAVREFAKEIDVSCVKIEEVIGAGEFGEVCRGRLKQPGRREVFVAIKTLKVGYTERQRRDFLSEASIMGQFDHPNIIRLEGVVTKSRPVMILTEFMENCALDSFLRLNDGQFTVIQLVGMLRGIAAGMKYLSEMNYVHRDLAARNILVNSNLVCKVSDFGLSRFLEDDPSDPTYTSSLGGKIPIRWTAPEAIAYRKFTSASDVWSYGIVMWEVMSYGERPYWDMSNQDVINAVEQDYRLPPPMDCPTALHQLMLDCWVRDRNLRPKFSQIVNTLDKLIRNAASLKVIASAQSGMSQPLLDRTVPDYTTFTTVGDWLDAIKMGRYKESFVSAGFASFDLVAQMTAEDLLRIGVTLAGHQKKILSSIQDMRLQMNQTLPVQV
T5 sequence (P53778 whole entry): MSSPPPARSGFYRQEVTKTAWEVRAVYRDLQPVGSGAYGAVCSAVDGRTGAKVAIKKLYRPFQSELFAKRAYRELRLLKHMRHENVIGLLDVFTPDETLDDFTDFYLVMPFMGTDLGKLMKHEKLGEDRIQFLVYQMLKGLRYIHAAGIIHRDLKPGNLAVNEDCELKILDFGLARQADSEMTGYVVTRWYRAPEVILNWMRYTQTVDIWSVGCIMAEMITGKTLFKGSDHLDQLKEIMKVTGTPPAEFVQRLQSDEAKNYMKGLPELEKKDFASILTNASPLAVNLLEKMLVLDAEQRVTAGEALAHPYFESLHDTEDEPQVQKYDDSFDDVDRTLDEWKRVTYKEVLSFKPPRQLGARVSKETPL

Compound	inhibition at 5 µM [1]	caspase-3/7 activity [2]	inhibition at 5 µM [3]	inhibition at 5 µM [4]	inhibition at 5 µM [5]	inhibition at 5 µM [6]	inhibition at 5 µM [7]	inhibition at 5 µM [8]	inhibition at 5 µM [9]	inhibition at 5 µM [10]	inhibition at 5 µM [11]	inhibition at 5 µM [12]	inhibition at 5 µM [13]	inhibition at 5 µM [14]	inhibition at 5 µM [15]	inhibition at 5 µM [16]	inhibition at 5 µM [17]	inhibition at 5 µM [18]	IC50 [20]	inhibition at 5 µM [20]	also measured
c1cncc(-c2cc(-c3cncs3)cs2)c1 [Compound 29, 3-[4-(1,3-thiazol-5-yl)thiophen-2-yl]pyridine]	0%	clear increase	66%	72%	7%	-2%	2%	3%	4%	-7%	0%	11%	23%	15%	11%	-7%	17%	0%	–	–	concentration at which induction of caspase-3/7 was already observed ([2]; U2OS cells, not statistically significant at this concentration): 0.5 µM; inhibition at 5 µM [19]: 1%
Cn1cc(-c2csc(-c3cccnc3)c2)cn1 [Compound 30, 3-[4-(1-methyl-1H-pyrazol-4-yl)thiophen-2-yl]pyridine]	9.5%	–	–	–	–	–	–	–	–	-8%	-8%	–	–	16%	–	–	–	–	400 nM and 410 nM	100%	Kd [20]: 148 nM; percentage of inhibition CK2α ([1]; at 5 µM): 10%
c1cncc(-c2csc(-c3cnco3)c2)c1 [Compound 33, 3-[5-(1,3-oxazol-5-yl)thiophen-3-yl]pyridine]	0%	–	–	–	–	–	–	–	–	-18%	0%	–	–	0%	–	–	–	–	1000 nM	83%	–
c1cncc(-c2csc(-c3cncnc3)c2)c1 [Compound 41, 5-[4-(pyridin-3-yl)thiophen-2-yl]pyrimidine]	0%	–	–	–	–	–	–	–	–	-7%	0%	–	–	3%	–	–	–	–	1800 nM	70%	–
c1cncc(-c2csc(-c3cncs3)c2)c1 [Compound 48, 3-[5-(1,3-thiazol-5-yl)thiophen-3-yl]pyridine]	0%	clear increase	69%	78%	7%	3%	0%	1%	6%	1%	0%	-4%	27%	17%	4%	-11%	15%	1%	70 nM	100%	Kd [20]: 26 nM; inhibition at 5 µM [19]: 3%
